These results are taken from ChEMBL document CHEMBL4622917, “Structure Elucidation and Absolute Configuration Determination of Nortriterpenoids from Picramnia glazioviana” (J Nat Prod, 2020).

Activity calls are given as the source filed them. No cut-off for these calls is given here.

Assay [1] has as its system SK-BR-3. The assay is described as follows: Cytotoxicity against human SKBR3 cells incubated for 48 hrs by MTT assay. The assay is classed as functional, cell-based. As to conditions: SK-BR-3, 48 h.
Assay [2] relates to MDA-MB-231. Nature of the assay: Cytotoxicity against human MDA-MB-231 cells incubated for 48 hrs by MTT assay. The assay is classed as functional, cell-based. To be noted: MDA-MB-231, 48 h.
Assay [3] deals with A549. The assay is described as follows: Cytotoxicity against human A549 cells incubated for 48 hrs by MTT assay. The assay is classed as functional, cell-based. To be noted: A549, 48 h.
The test system of assay [4] is A549. Nature of the assay: Cytotoxicity against human A549 cells assessed as cell viability at 100 uM incubated for 48 hrs by MTT assay relative to control. The assay is classed as functional. To be noted: A549, 48 h, read-out: Activity.
In assay [5] the test system is MDA-MB-231. Nature of the assay: Cytotoxicity against human MDA-MB-231 cells assessed as reduction in cell viability at 12.5 to 100 uM incubated for 48 hrs by MTT assay relative to control. The assay is classed as functional, cell-based.
For assay [6], the system named is SK-BR-3. The assay is described as follows: Cytotoxicity against human SKBR3 cells assessed as cell viability at 100 uM incubated for 48 hrs by MTT assay relative to control. The assay is classed as functional. To be noted: SK-BR-3, 48 h, read-out: Activity.
Assay [7] relates to MDA-MB-231. The assay is described as follows: Cytotoxicity against human MDA-MB-231 cells assessed as cell viability at 100 uM incubated for 48 hrs by MTT assay relative to control. The assay is classed as functional. To be noted: MDA-MB-231, 48 h, read-out: Activity.
In assay [8] the test system is MDA-MB-231. The assay is described as follows: Cytotoxicity against human MDA-MB-231 cells assessed as reduction in cell viability at 25 to 100 uM incubated for 48 hrs by MTT assay relative to control. The assay is classed as functional, cell-based.
In assay [9] the test system is MDA-MB-231. The assay is described as follows: Cytotoxicity against human MDA-MB-231 cells assessed as reduction in cell viability at 25 to 50 uM incubated for 48 hrs by MTT assay relative to control. The assay is classed as functional, cell-based.
The test system of assay [10] is A549. The assay is described as follows: Cytotoxicity against human A549 cells assessed as reduction in cell viability at 25 to 100 uM incubated for 48 hrs by MTT assay relative to control. The assay is classed as functional, cell-based.
The test system of assay [11] is MDA-MB-231. Nature of the assay: Cytotoxicity against human MDA-MB-231 cells assessed as reduction in cell viability at 50 to 100 uM incubated for 48 hrs by MTT assay relative to control. The assay is classed as functional, cell-based.

As for `CC1(C)O[C@H]2CC(=O)OC[C@]23[C@H]2CCC4=C([C@@H]5CCC(=O)O5)C(=O)CC[C@@]4(C)[C@]2(C)[C@H](OC(=O)c2ccccc2)C[C@@H]13`, the concentration for half-maximal inhibition (IC50) in assay [1], in assay [2] and in assay [3] was more than 10 µM each time. Also, the viability at 100 µM in assay [4], in [6] and in assay [7] was more than 50% in each case. Besides, in assay [5], the outcome was Active.
Turning to `COC(=O)CC(C)(C)[C@H](C(=O)OC)C1=C2CC[C@@H]3[C@@]45COC(=O)C[C@@H]4OC(C)(C)[C@@H]5C[C@@H](OC(=O)c4ccccc4)[C@@]3(C)[C@]2(C)CCC1=O`, the half-inhibitory concentration (IC50) in [1], in [2] and in [3] was more than 10 µM each time. The viability at 100 µM in assay [4], in [6] and in assay [7] was more than 50% in each case.
With `CC1(C)O[C@H]2CC(=O)OC[C@]23[C@H]2CCC4=C([C@H]5CCC(=O)O5)C(=O)CC[C@@]4(C)[C@]2(C)CC[C@@H]13`, the concentration for half-maximal inhibition (IC50) in [1], in assay [2] and in assay [3] was more than 10 µM throughout. Also, the viability at 100 µM in [4], in assay [6] and in assay [7] was more than 50% throughout.
`CC1(C)O[C@H]2CC(=O)OC[C@]23[C@H]2CCC4=C([C@H]5CCC(=O)O5)C(=O)CC[C@@]4(C)[C@]2(C)[C@H](OC(=O)c2ccccc2)C[C@@H]13`: the outcome in assay [8] was Active. Moreover, the IC50 in assay [1], in [2] and in [3] was more than 10 µM throughout. The viability at 100 µM in assay [4], in assay [6] and in assay [7] was more than 50% throughout.
For `COC(=O)[C@H](C1=C2[C@H]3O[C@H]3[C@@H]3[C@@]45COC(=O)C[C@@H]4OC(C)(C)[C@@H]5C[C@@H](OC(=O)c4ccccc4)[C@@]3(C)[C@]2(C)CCC1=O)C(C)(C)CC(=O)O`, the 50% inhibitory concentration (IC50) in assay [1], in assay [2] and in [3] was more than 10 µM each time. Also, the result in assay [9] was Active. The viability at 100 µM in assay [4], in assay [6] and in assay [7] was more than 50% throughout.
`COC(=O)CC(C)(C)[C@H](C(=O)OC)C1=C2CC[C@@H]3[C@@]45COC(=O)C[C@@H]4OC(C)(C)[C@@H]5CC[C@@]3(C)[C@]2(C)CCC1=O`: the IC50 in assay [1], in [2] and in assay [3] was more than 10 µM in each case. Further, the outcome in assay [10] and in assay [11] was Active. The viability at 100 µM in [4], in [6] and in assay [7] was more than 50% throughout.
Take `COC(=O)[C@H](C1=C2C=C[C@@H]3[C@@]45COC(=O)C[C@@H]4OC(C)(C)[C@@H]5C[C@@H](OC(=O)c4ccccc4)[C@@]3(C)[C@]2(C)CCC1=O)C(C)(C)CC(=O)O`: the half-inhibitory concentration (IC50) in assay [1], in [2] and in assay [3] was more than 10 µM in each case. In addition, the viability at 100 µM in assay [4], in assay [6] and in assay [7] was more than 50% throughout. In addition, the result in assay [11] was Active.
Regarding `COC(=O)[C@@H]1C2=C(CC[C@]3(C)C2=CC[C@@H]2[C@@]45COC(=O)C[C@@H]4OC(C)(C)[C@@H]5C[C@@H](O)[C@]23C)OC(=O)CC1(C)C`, the half-inhibitory concentration (IC50) in assay [1], in [2] and in assay [3] was more than 10 µM in each case. For the same molecule, the viability at 100 µM in [4], in assay [6] and in assay [7] was more than 50% each time.
